Laboratory results published in patent US9120780B2, “Indole or indazole derivative or salt thereof” (TAIHO PHARMACEUTICAL CO., LTD., priority 2011, dated 2015).

What was measured:
[1] = target: human HSP90 alpha protein (N-terminal, amino acids 2-236) (Homo sapiens (Human), UniProt P07900); assay: Measurement of HSP90-binding activity (AlphaScreen competitive assay, biotin-labeled geldanamycin); settings: inhibition of biotin-labeled geldanamycin binding to purified HSP90; read-out: HSP-binding activity IC50
Protocol: First, a solution of purified HSP90 was prepared as follows. […] The pET-HSP90N was introduced into Escherichia coli cells (BL21 (DE3), Stratagene Inc.), and then the Escherichia coli cells were cultured in the presence of 0.5 mM isopropyl-beta-D-thiogalactopyranoside (Sigma-Aldrich Corp.) at 37° C. for 4 hours. The Escherichia coli cells were collected, suspended in a lysis buffer (50 mM Tris-HCl (pH 7.5), 200 mM NaCl), and sonicated. The sonicated cell solution was centrifuged (40,000×g, 20 minutes) to obtain supernatant as a crude extract. The crude extract was fractionated by Ni Sepharose High Performance (GE Healthcare Japan Corporation) chromatography and HiLoad 26/60 Superdex 75 pg (GE Healthcare Japan Corporation), and the fraction in which HSP90 protein was concentrated was prepared so as to be a 50 mM Tris-HCl (pH 7.5)/20% glycerol solution as a purified HSP90 solution. The purified HSP90 solution was divided and stored at −80° C. until use.
The HSP90-binding activity was measured by an AlphaScreen competitive assay system. […] After reaction at room temperature for 2 hours, biotin-labeled geldanamycin was added to each reaction solution in an amount of 40 nM, followed by reaction for further 1 hour. […] After reaction in a dark place at room temperature for 1 hour, the fluorescence intensity in each well was measured with a multilabel plate reader, EnVision (Perkin Elmer, Inc.). The inhibition rate (%) of biotin-labeled geldanamycin binding by a compound of the present invention was determined by the following equation using the fluorescence signal of a test substance-free group (control) as a control. […] Inhibition rate (%)=(C−T)/C×100 T: signal in a well to which a test substance was added C: signal in a well to which no test substance was added

SK-BR-3 cells = assay: Measurement of cell growth inhibition (crystal violet staining); format: cell-based; settings: Homo sapiens, 72 hours culture with test substance
Protocol: Cell growth was measured by a crystal violet staining method. […] The cells were cultured in a 5% CO2 incubator at 37° C. for 24 hours, and then test substances were added to the plate, followed by culturing for further 72 hours. […] The plate was left to stand at room temperature for 20 minutes for staining the cells. The plate was washed with water and dried, and 100 μL of a mixed solution of 0.05 M NaH2PO4 and ethanol (mixture in equal amounts) was added to each well. The absorbance at 540 nm was measured with a microplate reader (MTP-450, Corona Electric Co., Ltd.) as an index of the number of cells in each well. The inhibition rate (%) of cell growth by a compound of the present invention was determined by the following equation using the absorbance of a drug-untreated group (control) as a control. […] Inhibition rate (%)=(C−T)/C×100 T: absorbance in a well to which a test substance was added C: absorbance in a well to which no test substance was added

SMILES	IC50 [1] [nM]	IC50 (SK-BR-3 cells) [nM]
COc1cccc2c1ccn2-c1ccc(C(N)=O)c(NC2CCC(O)CC2)c1 (centres unmarked) [Comparative Example 2, reference compound]	> 100000	
COc1cc2ccn(-c3ccc(C(N)=O)c(Nc4ccccc4)c3)c2cc1OC [Comparative Example 4, reference compound]	> 10000	> 10000
Cc1cn(-c2ccc(C(N)=O)c(NC(C)(C)C)c2)c2cccc(-n3cnc(-c4cnn(C)c4)c3)c12 [Example 46, 2-(Tert-butylamino)-4-{3-methyl-4-(4-(1-methyl-1H-pyrazolo-4-yl)-1H-imidazolo-1-yl)-1H-indol-1-yl}benzamide]	190	50
NC(=O)c1ccc(-n2nc(C(F)(F)F)c3c(-n4cnc(-c5cccnc5)c4)cccc32)c(N)c1 [Example 25, 3-Amino-4-(4-(4-(pyridin-3-yl)-1H-imidazol-1-yl)-3-(trifluoromethyl)-1H-indazol-1-yl)benzamide]	100	170
Cn1cc(-c2cn(-c3cccc4c3c(C(F)(F)F)nn4-c3ccc(C(N)=O)cc3N)cn2)cn1 [Example 24, 3-Amino-4-(4-(4-(1-methyl-1H-pyrazol-4-yl)-1H-imidazol-1-yl)-3-(trifluoromethyl)-1H-indazol-1-yl)benzamide]	80	130
CCNc1cc(-n2nc(C(F)(F)F)c3c(-n4cnc(-c5cnn(C)c5)c4)cccc32)ccc1C(N)=O [Example 15, 2-(Ethylamino)-4-(4-(4-(1-methyl-1H-pyrazol-4-yl)-1H-imidazol-1-yl)-3-(trifluoromethyl)-1H-indazol-1-yl)benzamide]	230	20
CC(C)c1nn(-c2ccc(C(N)=O)nc2)c2cccc(-n3cnc(-c4cnn(C)c4)c3)c12 [Example 7, 5-(3-Isopropyl-4-(4-(1-methyl-1H-pyrazol-4-yl)-1H-imidazol-1-yl)-1H-indazol-1-yl)-2-pyridinecarboxyamide]	370	1190
CCCc1cn(-c2ccc(C(N)=O)cc2CC)c2cccc(-n3cnc(-c4cnn(C)c4)c3)c12 [Example 49, 3-Ethyl-4-{4-(4-(1-methyl-1H-pyrazolo-4-yl)-3-propyl-1H-imidazolo-1-yl)-1H-indol-1-yl}benzamide]	120	30
CCc1cn(-c2ccc(C(N)=O)c(NC(C)(C)C)c2)c2cccc(-n3cnc(-c4cnn(C)c4)c3)c12 [Example 48, 2-(Tert-butylamino)-4-{3-ethyl-4-(4-(1-methyl-1H-pyrazolo-4-yl)-1H-imidazolo-1-yl)-1H-indol-1-yl}benzamide]	260	10
COc1ccc2c(c1)cc(C)n2-c1ccc(C(N)=O)c(Nc2ccccc2)c1 [Comparative Example 5, reference compound]	> 100000	> 10000
Cc1cn(-c2ccc(C(N)=O)c(NC(C)(C)C)c2)c2cccc(-n3cnc(-c4cccnc4)c3)c12 [Example 47, 2-(Tert-butylamino)-4-{3-methyl-4-(4-(pyridin-3-yl)-1H-imidazolo-1-yl)-1H-indol-1-yl}benzamide]	430	120
CC(C)Nc1cc(C(N)=O)ccc1-n1nc(C(F)(F)F)c2c(-n3cnc(-c4cnn(C)c4)c3)cccc21 [Example 20, 3-(Isopropylamino)-4-(4-(4-(1-methyl-1H-pyrazol-4-yl)-1H-imidazol-1-yl)-3-(trifluoromethyl)-1H-indazol-1-yl)benzamide]	140	90
NC(=O)c1ccc(-n2ccc3ccccc32)c(Cl)c1 [Comparative Example 6, reference compound]	> 100000	
COc1cc2ccn(-c3ccc(C#N)c(Nc4ccccc4)c3)c2cc1OC [Comparative Example 3, reference compound]	> 10000	
COc1ccc2ccn(-c3ccc(C(N)=O)c(NC4CCC(O)CC4)c3)c2c1 (centres unmarked) [Comparative Example 1, reference compound]	> 100000	
